# Measured values as given in patent publication US20120157419A1, “METHODS AND COMPOSITIONS FOR TREATING ALZHEIMER'S DISEASE” (priority 2009, published 2012).
# Experiments:
# [1] = Aramchol plasma levels after single oral ascending doses in normal human volunteers; assay type: in vivo
# Method: To 200 μL of each plasma sample, calibrator, and QC sample were added 20 μL of 2.5 μg/mL internal standard solution in 1:1 methanol:water followed by 50 μl, of 5% acetic acid and 2 mL of methyltertbutylether. The samples were mixed on a rotating shaker for 5 minutes and centrifuged. After centrifugation, the aqueous layer of the samples was frozen and the upper (organic) layer was transferred to evaporation tubes and evaporated to dryness under a gentle stream of N2 at ˜40° C. The samples were then reconstituted in 200 μL of 5:4:1 methanol:acetonitrile:20 mM ammonium acetate, mixed, and centrifuged. 100 μL of the clear upper solution was transferred to auto-sampler vials and analyzed by UPLC-MS/MS using a Waters Acquity UPLC BEH C18, 50×2.1 mm, 1.7μ column. A sample blank (blank plasma) and reagent blank (water) were also prepared, but without internal standard added (1:1 methanol:water added instead).
# Normal human volunteers (n=12) ingested Aramchol in a formulation containing sodium lauryl sulfate and carboxy methyl cellulose, in a single dose containing 30, 100, 300, or 900 mg of Aramchol. Blood was sampled at 0, 1, 3, 4, 6, 9, 12, 18, 24, 36, 48, and 72 hours following ingestion. Aramchol blood levels were measured by a mass spectroscopy-based method (Goldiner et al., J Chromatogr B Analyt Technol Biomed Life Sci 2003; 795: 35-40). Aramchol plasma levels were measurable at all doses and were dose-proportional.
# [2] = system: human astrocyte cells (ccf-sttg1 cell line); experiment: Cholesterol efflux from a human astrocyte cell line; assay type: cell-based; details: for Concentration evoking maximal cholesterol efflux / Concentration of maximal effect on cholesterol efflux: 20 hr incubation, [3H]cholesterol-loaded ccf-sttg1 cells
# Method: Human astrocyte cells (1×10^6 cells/ml; ccf-sttg1 cell line) were incubated in 24 plates for 24-48 hours in 10% FCS (Fetal Calf Serum) in DMEM (Dulbecco's modified Eagle's Media) in a humidified 37° C. incubator in the presence of 7.5% CO2. After the incubation time Cholesterol loading was performed by incubating the cells for 20 hr with DMEM supplemented with 30 μg/ml cholesterol, 0.5 μCi/ml of [^3H]cholesterol and 0.2% fatty-acid-free BSA (Bovine Serum Albumin). After incubation, the cells were washed four times with PBS (Phosphate Buffered Saline) containing 0.2% fatty-acid-free BSA. Cells were then incubated for 20 hr in a humidified incubator at 37° C. in the presence of 10% CO2, with or without apolipoproteins (ApoE) or FABACs (Aramchol or Steamchol) at several concentrations. The medium was collected and centrifuged at 12000 g for 5 min to remove cellular debris. The aliquots of the supernatant were taken to count the effluxed [^3H]cholesterol. The remaining cell-associated [^3H]cholesterol was determined after extraction for at least 30 min with propan-2-ol. Efflux was determined in the presence, or absence, of apolipoproteins or FABACs. FABACs were dissolved in ethanol and added to the medium at the concentrations indicated. The amount of [^3H]cholesterol in the medium and cellular extract was quantified by liquid-scintillation counting. The radioactivity released into the medium was expressed as the fraction of the total radioactive cholesterol that was present in the supernatant of each well. The percentage efflux was calculated by dividing the radioactive counts in the efflux medium by the sum of the counts in the medium and cell extract.
# Astrocyte brain cells (ccf-sttg1 cell line) were maintained under the same conditions as above (Example 3) and the effect of the 2 physiological stimulants ApoE3 and ApoE4 was tested. […] FABACs evoked a maximal cholesterol efflux at the concentrations of 2 microgram/ml (Steamchol) and 5 microgram/ml (Aramchol) while the apolipoproteins reached a maximal effect at the concentration of 10 microgram/ml. Furthermore, at the above concentrations, the % of cell cholesterol removed into the medium was about 25% higher with the FABACs as compared to the apolipoproteins. Note that the control efflux induced by the medium only is equal in both sets of experiments. The efflux at concentrations of 20 microgram/ml is problematic, since cell damage occurs at this concentration.
# [3] = 14C-Aramchol radioactivity in the brain of rats after oral administration; assay type: in vivo, male Wistar rats; details: for Radioactivity in brain tissues: rat brain homogenate
# Method: Male Wistar rats weighing 200-250 gm received a single gavage administration of ^14C-labeled-Aramchol (suspended in 0.3 ml saline), at a target dose level of 16 μCi/ml (40 μCi/kg). Aramchol is also known as “3beta-arachidyl amido, 7α,12α-dihydroxy-5-beta-cholan-24-oic acid” or “C-20 FABAC,” an amide conjugate (at position 3 of the bile acid) of arachidic and cholic acids. Groups of 3 animals were sacrificed following gavage, using ketamine anesthesia, at 3, 12, 24 or 72 hours.
# Brain tissue samples were excised, homogenized in ice-cold 5M guanidine thiocyanate/HCl, pH 8, and rotated at room temperature for 4 h. Homogenates were stored at −80° C. Brain homogenates were diluted and centrifuged, and the ^14C-label was detected by mixing samples with scintillation fluid and reading in a liquid scintillation counter.
SMILES,"Aramchol plasma level at 24 hr ([1]; 24 hr after a single ingestion, human)","Aramchol plasma level at 36 hr ([1]; 36 hr after a single ingestion, human)","Time blood levels remain high ([1]; after a single administration, humans)","Aramchol plasma levels versus dose ([1]; single oral dose 30-900 mg, human plasma)","Cholesterol efflux at 2 μg/ml ([2]; 2 μg/ml, compared with 5-10 μg/ml)","Cholesterol efflux at 20 μg/ml ([2]; 20 μg/ml, compared with 5-10 μg/ml)",Concentration evoking maximal cholesterol efflux [2] [microgram/ml],Concentration of maximal effect on cholesterol efflux [2] [µg/mL],"Effect on cholesterol efflux ([2]; ccf-sttg1 cells, versus medium)",Radioactivity in brain tissues ([3]; 3 hr after single gavage of 14C-labeled Aramchol (40 μCi/kg)) [cpm/mg tissue],Radioactivity in brain tissues ([3]; 12 hr after single gavage of 14C-labeled Aramchol (40 μCi/kg)) [cpm/mg/tissue],"Time at which brain radioactivity disappeared ([3]; single gavage, rats) [h]","Time of peak radioactivity in brain ([3]; single gavage, rats) [h]","Time radioactivity first detected in brain ([3]; single gavage, rats) [h]",Potency on cholesterol efflux relative to comparator ([2]; ccf-sttg1 cells)
"CCCCCCCCCCCCCCCCCCCC(=O)N[C@H]1CC[C@@]2(C)[C@@H](C1)C[C@@H](O)[C@@H]1[C@@H]2C[C@H](O)[C@]2(C)[C@@H]([C@H](C)CCC(=O)O)CC[C@@H]12 [Aramchol, 3β-arachidylamido-7α,12α, dihydroxy 5β-cholan-24-oic acid]",high Aramchol levels,substantial levels,over 24 hours,dose-proportional,Lower efflux levels,decrease in cholesterol efflux,5,5 to 10,increased cholesterol efflux,0.15,0.32,~24,12,3,–
"CCCCCCCCCCCCCCCCCC(=O)N[C@H]1CC[C@@]2(C)[C@@H](C1)C[C@@H](O)[C@@H]1[C@@H]2C[C@H](O)[C@]2(C)[C@@H]([C@H](C)CCC(=O)O)CC[C@@H]12 [Steamchol, 3β-stearoylamido-7α,12α-dihydroxy-5β-cholan-24-oic acid]",–,–,–,–,–,–,2,2,–,–,–,–,–,–,higher potency than Aramchol
